Holding throughout (test): MIC, in vitro antibacterial activity (standard strains)
In experiment [1] the test system is Bacillus subtilis PCI 219. In kind it is cell-based. Particulars: Bacillus subtilis, PCI219; 10^6 cells/ml; Gram +; read-out: MIC.
Experiment [2] relates to Eubacterium lentum GAI 5242. In kind it is cell-based. Particulars: Eggerthella lenta, GAI5242; 10^6 cells/ml; Gram +; read-out: MIC.
The subject of experiment [3] is Peptostreptococcus anaerobius KYA 27337. Type of experiment: cell-based. Particulars: Peptostreptococcus anaerobius, KYA27337; 10^6 cells/ml; Gram +; read-out: MIC.
The subject of experiment [4] is Morganella morganii IID 602. In kind it is cell-based. Particulars: Morganella morganii, IID602; 10^6 cells/ml; Gram -; read-out: MIC.
A further experiment relates to E. coli ATCC 10536. In kind it is cell-based, Escherichia coli. The following applies: Escherichia coli, ATCC10536; 10^6 cells/ml; Gram -; read-out: MIC.
For the next experiment, the system named is P. aeruginosa IFO 12689. In kind it is cell-based, Pseudomonas aeruginosa. Particulars: Pseudomonas aeruginosa, IFO12689; 10^6 cells/ml; Gram -; read-out: MIC.
A further experiment deals with B. vulgatus KYA 29327. In kind it is cell-based. Particulars: Phocaeicola vulgatus, KYA29327; 10^6 cells/ml; Gram -; read-out: MIC.
Experiment [5] has as its system Salmonella enteritidis IID 604. In kind it is cell-based. Particulars: Salmonella enterica; 10^6 cells/ml; Gram -; read-out: MIC.
A further experiment concerns E. faecalis IID 682. In kind it is cell-based. The following applies: Enterococcus faecalis, IID682; 10^6 cells/ml; Gram +; read-out: MIC.
Experiment [6] has as its system B. thetaiotaomicron (0661). Type of experiment: cell-based. The following applies: Bacteroides thetaiotaomicron; 10^6 cells/ml; Gram -; read-out: MIC.
For experiment [7], the system named is Citrobacter freundii IID 976. Type of experiment: cell-based. The following applies: Citrobacter freundii, IID976; 10^6 cells/ml; Gram -; read-out: MIC.
Experiment [8] relates to Fusobacterium mortiferum 4249. Type of experiment: cell-based. The following applies: Fusobacterium mortiferum, 4249; 10^6 cells/ml; Gram -; read-out: MIC.
A further experiment relates to P. aeruginosa IID 1210. Type of experiment: cell-based, Pseudomonas aeruginosa. The following applies: Pseudomonas aeruginosa, IID1210; 10^6 cells/ml; Gram -; read-out: MIC.
The subject of another experiment is P. cepacia GIFU 518. In kind it is cell-based. The following applies: Burkholderia cepacia, GIFU518.
Experiment [9] relates to Serratia marcescens IID 618. Type of experiment: cell-based. The following applies: Serratia marcescens, IID618; 10^6 cells/ml; Gram -; read-out: MIC.
Experiment [10] has as its system S. aureus IID 670 (Terajima). Type of experiment: cell-based, Staphylococcus aureus. The following applies: Staphylococcus aureus, IID670; 10^6 cells/ml; Gram +; read-out: MIC.
In the next experiment the test system is B. distasonis 8503. In kind it is cell-based. The following applies: Parabacteroides distasonis, 8503; 10^6 cells/ml; Gram -; read-out: MIC.
Setting [11] is: 10^6 cells/ml, Gram -, read-out: MIC.

This note sets out measurements from patent publication US4753953A, “Pyridonecarboxylic acid derivatives and antibacterial pharmaceutical compositions thereof” (priority 1985, dated 1988).

≈ marks a conversion by molar mass, not a printed value. Read-outs that look alike come from different tables or passages of the source.

With `CC1COc2c(N3C[C@@H](N)[C@@H](C)C3)c(F)cc3c(=O)c(C(=O)O)cn1c23.Cl` (relative stereo) [Example 29, 10-(cis-3-Amino-4-methyl-1-pyrrolidinyl)-9-fluoro-2,3-dihydro-3-methyl-7-oxo-7H-pyrido[1,2,3-de][1,4]benzoxazine-6-carboxylic acid hydrochloride], the MIC is 0.05 µg/mL in experiment [1]; 0.78 µg/mL in experiment [2]; 1.56 µg/mL in experiment [3]; 0.2 µg/mL in experiment [4]; 0.05 µg/mL with E. coli ATCC 10536; 1.56 µg/mL in the experiment with P. aeruginosa IFO 12689. In addition, the MIC was found to be 6.25 µg/mL in the experiment with B. vulgatus KYA 29327; 0.1 µg/mL in [5]; 0.39 µg/mL with E. faecalis IID 682; 6.25 µg/mL in experiment [6]; 0.1 µg/mL in experiment [7]; 0.78 µg/mL in experiment [8]. For the same molecule, the MIC with P. aeruginosa IID 1210 was 6.25 µg/mL; in the experiment on P. cepacia GIFU 518 (setting [11]), 1.56 µg/mL; in experiment [9], 0.1 µg/mL; in experiment [10] it was 0.39 µg/mL.

Consider `CC1CN(c2c(F)cc3c(=O)c(C(=O)O)cn(C4CC4)c3c2Cl)CC1N` (stereo not shown) [Example 7, 7-(3-Amino-4-methyl-1-pyrrolidinyl)-8-chloro-1-cyclopropyl-6-fluoro-1,4-dihydro-4-oxo-3-quinolinecarboxylic acid], for which the MIC in [1] was determined as 0.0125 µg/mL (≈ 0.0329 µM); in experiment [2], 0.1 µg/mL (≈ 0.263 µM); in [3], 0.2 µg/mL (≈ 0.527 µM); in [4], 0.05 µg/mL (≈ 0.132 µM); in the experiment on E. coli ATCC 10536, 0.0125 µg/mL (≈ 0.0329 µM); in the experiment on P. aeruginosa IFO 12689, 0.39 µg/mL (≈ 1.03 µM). Besides, the MIC in the experiment with B. vulgatus KYA 29327 was 0.1 µg/mL (≈ 0.263 µM); in experiment [5] it was 0.025 µg/mL (≈ 0.0658 µM); in the experiment with E. faecalis IID 682, 0.1 µg/mL (≈ 0.263 µM); in experiment [6], 0.2 µg/mL (≈ 0.527 µM); with B. distasonis 8503, 0.39 µg/mL (≈ 1.03 µM); in [7], 0.025 µg/mL (≈ 0.0658 µM). Besides, the MIC was 0.2 µg/mL (≈ 0.527 µM) in experiment [8]; 0.39 µg/mL (≈ 1.03 µM) in the experiment with P. aeruginosa IID 1210; 0.2 µg/mL (≈ 0.527 µM) in the experiment with P. cepacia GIFU 518; 0.05 µg/mL (≈ 0.132 µM) in experiment [9]; 0.05 µg/mL (≈ 0.132 µM) in [10].

Take `C[C@H]1CN(c2c(F)cc3c(=O)c(C(=O)O)cn(C4CC4)c3c2F)C[C@H]1N.Cl` (relative stereo) [Example 20, 7-(cis-3-Amino-4-methyl-1-pyrrolidinyl)-1-cyclopropyl-6,8-difluoro-1,4-dihydro-4-oxo-3-quinolinecarboxylic acid hydrochloride]: the MIC in experiment [1] came to 0.025 µg/mL; in [2] it was 0.2 µg/mL; in experiment [3], 0.39 µg/mL; in experiment [4], 0.05 µg/mL; in the experiment on E. coli ATCC 10536, 0.025 µg/mL; with P. aeruginosa IFO 12689, 0.39 µg/mL. Further, the MIC in the experiment on B. vulgatus KYA 29327 turned out to be 0.39 µg/mL; in experiment [5], 0.05 µg/mL; with E. faecalis IID 682, 0.2 µg/mL; in experiment [6], 0.78 µg/mL; with B. distasonis 8503, 0.78 µg/mL; in experiment [7] it was 0.025 µg/mL. Moreover, the MIC in experiment [8] amounted to 0.39 µg/mL; with P. aeruginosa IID 1210, 0.78 µg/mL; with P. cepacia GIFU 518 (setting [11]), 0.39 µg/mL; in experiment [9] it was 0.05 µg/mL; in experiment [10] it was 0.05 µg/mL.

`C[C@H]1CN(c2c(F)cc3c(=O)c(C(=O)O)cn(C4CC4)c3c2Br)C[C@H]1N` (relative stereo) [Example 21, 7-(cis-3-Amino-4-methyl-1-pyrrolidinyl)-8-bromo-1-cyclopropyl-6-fluoro-1,4-dihydro-4-oxo-3-quinolinecarboxylic acid]: the MIC in experiment [1] was determined as 0.0125 µg/mL (≈ 0.0295 µM); in [2], 0.05 µg/mL (≈ 0.118 µM); in [3] it was 0.2 µg/mL (≈ 0.471 µM); in experiment [4], 0.05 µg/mL (≈ 0.118 µM); in the experiment on E. coli ATCC 10536, 0.0125 µg/mL (≈ 0.0295 µM); in the experiment on P. aeruginosa IFO 12689, 0.78 µg/mL (≈ 1.84 µM). In addition, the MIC with B. vulgatus KYA 29327 was determined as 0.1 µg/mL (≈ 0.236 µM); in experiment [5] it was 0.025 µg/mL (≈ 0.0589 µM); with E. faecalis IID 682, 0.2 µg/mL (≈ 0.471 µM); in [6] it was 0.2 µg/mL (≈ 0.471 µM); in the experiment with B. distasonis 8503 it was 0.39 µg/mL (≈ 0.919 µM); in experiment [7], 0.025 µg/mL (≈ 0.0589 µM). For the same molecule, the MIC in [8] was 0.2 µg/mL (≈ 0.471 µM); in the experiment with P. aeruginosa IID 1210 it was 1.56 µg/mL (≈ 3.68 µM); with P. cepacia GIFU 518 (setting [11]) it was 0.39 µg/mL (≈ 0.919 µM); in experiment [9], 0.025 µg/mL (≈ 0.0589 µM); in experiment [10] it was 0.05 µg/mL (≈ 0.118 µM).

Regarding `C[C@H]1CN(c2c(F)cc3c(=O)c(C(=O)O)cn4c3c2OC[C@@H]4C)C[C@H]1N.Cl` (mixture of isomers) [Example 31, (3S)-10-(cis-3-Amino-4-methyl-1-pyrrolidinyl)-9-fluoro-2,3-dihydro-3-methyl-7-oxo-7H-pyrido[1,2,3-de][1,4]benzoxazine-6-carboxylic acid hydrochloride], the MIC in experiment [1] amounted to 0.05 µg/mL; in experiment [2], 0.39 µg/mL; in experiment [3], 0.39 µg/mL; in experiment [4], 0.2 µg/mL; in the experiment on E. coli ATCC 10536, 0.025 µg/mL; in the experiment with P. aeruginosa IFO 12689, 0.78 µg/mL. For the same molecule, the MIC came out at 3.13 µg/mL in the experiment with B. vulgatus KYA 29327; 0.1 µg/mL in experiment [5]; 0.2 µg/mL in the experiment on E. faecalis IID 682; 3.13 µg/mL in [6]; 0.05 µg/mL in [7]; 0.39 µg/mL in [8]. The MIC in the experiment on P. aeruginosa IID 1210 turned out to be 3.13 µg/mL; with P. cepacia GIFU 518 (setting [11]), 1.56 µg/mL; in experiment [9], 0.1 µg/mL; in experiment [10] it was 0.2 µg/mL.

As for `C[C@@H]1CN(c2c(F)cc3c(=O)c(C(=O)O)cn(C4CC4)c3c2Br)C[C@H]1N` (relative stereo) [Example 32, 7-(trans-3-Amino-4-methyl-1-pyrrolidinyl)-8-bromo-1-cyclopropyl-6-fluoro-1,4-dihydro-4-oxo-3-quinolinecarboxylic acid], the MIC turned out to be 0.0125 µg/mL (≈ 0.0295 µM) in [1]; 0.1 µg/mL (≈ 0.236 µM) in [2]; 0.2 µg/mL (≈ 0.471 µM) in [3]; 0.05 µg/mL (≈ 0.118 µM) in experiment [4]; 0.0125 µg/mL (≈ 0.0295 µM) with E. coli ATCC 10536; 0.39 µg/mL (≈ 0.919 µM) with P. aeruginosa IFO 12689. The MIC came to 0.1 µg/mL (≈ 0.236 µM) with B. vulgatus KYA 29327; 0.05 µg/mL (≈ 0.118 µM) in experiment [5]; 0.2 µg/mL (≈ 0.471 µM) with E. faecalis IID 682; 0.2 µg/mL (≈ 0.471 µM) in experiment [6]; 0.2 µg/mL (≈ 0.471 µM) in the experiment on B. distasonis 8503; 0.025 µg/mL (≈ 0.0589 µM) in [7]. Further, the minimal inhibitory concentration (MIC) in experiment [8] is 0.2 µg/mL (≈ 0.471 µM); in the experiment with P. aeruginosa IID 1210 it was 0.78 µg/mL (≈ 1.84 µM); in experiment [9] it was 0.05 µg/mL (≈ 0.118 µM); in [10], 0.05 µg/mL (≈ 0.118 µM).

On to `C[C@H]1CN(c2cc3c(cc2F)c(=O)c(C(=O)O)cn3C2CC2)C[C@H]1N` (relative stereo) [Example 33, 7-(cis-3-Amino-4-methyl-1-pyrrolidinyl)-1-cyclopropyl-6-fluoro-1,4-dihydro-4-oxo-3-quinolinecarboxylic acid], for which the MIC in [1] came out at 0.05 µg/mL (≈ 0.145 µM); in experiment [2], 0.78 µg/mL (≈ 2.26 µM); in experiment [3], 1.56 µg/mL (≈ 4.52 µM); in experiment [4] it was 0.05 µg/mL (≈ 0.145 µM); with E. coli ATCC 10536, 0.05 µg/mL (≈ 0.145 µM); in the experiment on P. aeruginosa IFO 12689, 0.39 µg/mL (≈ 1.13 µM). Further, the MIC with B. vulgatus KYA 29327 worked out at 6.25 µg/mL (≈ 18.1 µM); in [5], 0.05 µg/mL (≈ 0.145 µM); with E. faecalis IID 682, 0.39 µg/mL (≈ 1.13 µM); in experiment [6], 6.25 µg/mL (≈ 18.1 µM); in the experiment on B. distasonis 8503 it was 6.25 µg/mL (≈ 18.1 µM); in experiment [7], 0.05 µg/mL (≈ 0.145 µM). Besides, the MIC came to 1.56 µg/mL (≈ 4.52 µM) in experiment [8], 1.56 µg/mL (≈ 4.52 µM) with P. aeruginosa IID 1210, 0.05 µg/mL (≈ 0.145 µM) in experiment [9] and 0.1 µg/mL (≈ 0.29 µM) in experiment [10].

As usually defined, the MIC is the smallest concentration in the dilution series that meets the test's criterion for growth inhibition.
